Experimental findings from ChEMBL document CHEMBL5370608, “Selective and Bioavailable HDAC6 2-(Difluoromethyl)-1,3,4-oxadiazole Substrate Inhibitors and Modeling of Their Bioactivation Mechanism” (J Med Chem, 2023) are described below.

Converted amounts (≈) assume the structure as drawn.

For data set [1], the target named is Histone deacetylase 5 (Homo sapiens, UniProt Q9UQL6). The data set is described as follows: Inhibition of human recombinant HDAC5 incubated for 30 mins by fluorimetry analysis.
Data set [2] deals with T1, Histone deacetylase 7 (Homo sapiens, UniProt Q8WUI4).
T1 sequence (Q8WUI4 whole entry): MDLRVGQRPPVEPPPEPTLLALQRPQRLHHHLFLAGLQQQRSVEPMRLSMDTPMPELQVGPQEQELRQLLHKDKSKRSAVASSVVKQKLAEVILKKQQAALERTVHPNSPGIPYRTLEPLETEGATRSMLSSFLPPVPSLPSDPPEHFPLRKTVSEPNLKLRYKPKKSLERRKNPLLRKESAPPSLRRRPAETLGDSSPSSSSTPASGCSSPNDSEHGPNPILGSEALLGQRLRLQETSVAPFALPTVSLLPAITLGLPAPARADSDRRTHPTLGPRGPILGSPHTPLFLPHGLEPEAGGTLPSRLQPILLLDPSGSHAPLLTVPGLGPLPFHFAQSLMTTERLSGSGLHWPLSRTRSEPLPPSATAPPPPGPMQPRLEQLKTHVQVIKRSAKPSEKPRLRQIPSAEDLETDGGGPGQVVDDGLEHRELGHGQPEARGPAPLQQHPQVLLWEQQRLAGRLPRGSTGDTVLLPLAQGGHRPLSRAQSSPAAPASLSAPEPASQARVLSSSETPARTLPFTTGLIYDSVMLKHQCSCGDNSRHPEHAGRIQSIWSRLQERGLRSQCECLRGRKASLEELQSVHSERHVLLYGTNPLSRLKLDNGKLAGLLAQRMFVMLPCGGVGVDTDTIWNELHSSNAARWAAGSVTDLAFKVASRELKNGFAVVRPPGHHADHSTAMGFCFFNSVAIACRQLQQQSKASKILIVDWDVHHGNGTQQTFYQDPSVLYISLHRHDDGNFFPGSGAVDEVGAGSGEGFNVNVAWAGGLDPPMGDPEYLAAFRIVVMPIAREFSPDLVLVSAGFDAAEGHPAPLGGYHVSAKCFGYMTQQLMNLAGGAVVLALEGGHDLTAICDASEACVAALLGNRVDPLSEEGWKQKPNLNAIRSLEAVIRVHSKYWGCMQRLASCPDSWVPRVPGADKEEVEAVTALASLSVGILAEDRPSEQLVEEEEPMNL
In words: Inhibition of human recombinant HDAC7 incubated for 30 mins by fluorimetry analysis.

Data set [3] concerns the target T2, Histone deacetylase 11 (Homo sapiens, UniProt Q96DB2).
T2 sequence (Q96DB2 whole entry): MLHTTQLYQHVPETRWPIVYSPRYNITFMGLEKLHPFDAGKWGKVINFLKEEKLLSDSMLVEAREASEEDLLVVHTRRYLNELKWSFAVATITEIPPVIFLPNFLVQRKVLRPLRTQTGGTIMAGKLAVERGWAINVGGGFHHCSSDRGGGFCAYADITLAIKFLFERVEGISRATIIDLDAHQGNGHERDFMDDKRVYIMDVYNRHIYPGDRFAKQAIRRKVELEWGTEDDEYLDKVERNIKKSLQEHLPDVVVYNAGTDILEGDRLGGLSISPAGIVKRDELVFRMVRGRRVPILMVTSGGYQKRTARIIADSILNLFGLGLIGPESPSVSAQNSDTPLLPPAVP
The data set is described as follows: Inhibition of human recombinant HDAC11 incubated for 30 mins by fluorimetry analysis.

In data set [4] the target is Histone deacetylase 4 (Homo sapiens, UniProt P56524). The data set is described as follows: Inhibition of human recombinant HDAC4 incubated for 30 mins by fluorimetry analysis.
Data set [5] addresses Histone deacetylase 2 (Homo sapiens, UniProt Q92769). In words: Inhibition of human recombinant HDAC2 incubated for 15 mins by fluorimetry analysis.
Data set [6] has as its target T3, Protein deacetylase HDAC6 (Homo sapiens, UniProt Q9UBN7).
T3 sequence (Q9UBN7 whole entry): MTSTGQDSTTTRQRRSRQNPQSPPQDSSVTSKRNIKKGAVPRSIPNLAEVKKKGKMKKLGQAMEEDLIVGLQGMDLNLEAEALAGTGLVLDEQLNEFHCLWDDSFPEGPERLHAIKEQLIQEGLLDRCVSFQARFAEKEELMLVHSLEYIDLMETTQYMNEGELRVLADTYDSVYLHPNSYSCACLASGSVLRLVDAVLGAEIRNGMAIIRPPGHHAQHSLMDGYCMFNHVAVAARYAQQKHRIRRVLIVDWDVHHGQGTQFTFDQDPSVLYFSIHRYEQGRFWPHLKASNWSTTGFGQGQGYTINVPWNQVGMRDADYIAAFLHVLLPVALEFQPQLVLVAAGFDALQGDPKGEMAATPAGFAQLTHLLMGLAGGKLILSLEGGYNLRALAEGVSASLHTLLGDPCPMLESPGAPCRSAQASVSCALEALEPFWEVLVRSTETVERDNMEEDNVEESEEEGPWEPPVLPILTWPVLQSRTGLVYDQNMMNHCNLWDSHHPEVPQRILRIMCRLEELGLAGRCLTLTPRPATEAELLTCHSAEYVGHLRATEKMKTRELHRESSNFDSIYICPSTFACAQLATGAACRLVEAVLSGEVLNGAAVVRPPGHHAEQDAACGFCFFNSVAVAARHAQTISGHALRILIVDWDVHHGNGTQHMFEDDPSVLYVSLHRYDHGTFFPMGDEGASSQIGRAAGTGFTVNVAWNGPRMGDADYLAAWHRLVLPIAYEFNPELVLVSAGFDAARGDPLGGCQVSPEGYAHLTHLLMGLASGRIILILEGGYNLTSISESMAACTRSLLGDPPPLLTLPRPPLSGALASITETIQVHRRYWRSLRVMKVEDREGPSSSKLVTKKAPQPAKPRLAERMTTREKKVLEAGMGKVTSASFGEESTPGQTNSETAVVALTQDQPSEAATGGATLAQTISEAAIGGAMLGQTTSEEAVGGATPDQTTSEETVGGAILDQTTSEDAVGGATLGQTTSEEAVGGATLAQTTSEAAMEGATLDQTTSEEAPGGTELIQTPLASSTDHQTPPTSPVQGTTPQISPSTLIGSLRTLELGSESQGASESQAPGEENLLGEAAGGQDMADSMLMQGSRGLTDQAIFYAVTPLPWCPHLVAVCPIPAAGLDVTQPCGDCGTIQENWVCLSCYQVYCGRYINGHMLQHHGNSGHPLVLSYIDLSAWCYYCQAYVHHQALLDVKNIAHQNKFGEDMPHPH
The data set is described as follows: Inhibition of human recombinant HDAC6 incubated for 30 mins by fluorimetry analysis.

For data set [7], the target named is Histone deacetylase 1 (Homo sapiens, UniProt Q13547). The data set is described as follows: Inhibition of human recombinant HDAC1 incubated for 15 mins by fluorimetry analysis.
Data set [8] addresses T3, Protein deacetylase HDAC6. The data set is described as follows: Inhibition of full length TEV-cleavable N-terminal His6-tagged human recombinant HDAC6 using Ac-RGK (Ac)-AMC as substrate preincubated for 20 hrs followed by substrate addition and measured after 3 hrs by microplate reader analysis.
The target in data set [9] is T3, Protein deacetylase HDAC6. In words: Inhibition of HDAC6 in human BEAS-2B cells assessed as deacetylation of acetylated histone-3 level incubated for 24 hrs by Western blot analysis. Type of data set: cell-based. (In western blotting, separated proteins are transferred to a membrane and probed.)
The target in data set [10] is T3, Protein deacetylase HDAC6. The data set is described as follows: Inhibition of HDAC6 in human BEAS-2B cells assessed as deacetylation of acetylated alpha-tubulin level incubated for 24 hrs by Western blot analysis. Type of data set: cell-based.
Data set [11] is described as follows: Aqueous solubility of the compound at pH 7.4. It is filed as physicochemical.

Chain of Histone deacetylase 1 (Q13547 whole entry): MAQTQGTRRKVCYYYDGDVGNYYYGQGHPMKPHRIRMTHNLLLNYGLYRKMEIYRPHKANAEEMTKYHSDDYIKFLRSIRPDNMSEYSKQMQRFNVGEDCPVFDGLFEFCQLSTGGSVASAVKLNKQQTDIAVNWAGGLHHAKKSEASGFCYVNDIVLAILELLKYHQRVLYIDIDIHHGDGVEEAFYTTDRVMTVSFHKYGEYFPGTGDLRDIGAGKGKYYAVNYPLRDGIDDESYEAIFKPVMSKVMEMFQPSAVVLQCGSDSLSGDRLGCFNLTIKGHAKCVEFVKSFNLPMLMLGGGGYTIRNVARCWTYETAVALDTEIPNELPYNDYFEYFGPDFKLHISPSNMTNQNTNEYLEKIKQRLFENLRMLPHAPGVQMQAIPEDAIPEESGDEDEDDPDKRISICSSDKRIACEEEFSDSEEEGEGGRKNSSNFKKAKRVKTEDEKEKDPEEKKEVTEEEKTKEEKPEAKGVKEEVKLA
Chain of Histone deacetylase 5 (Q9UQL6 whole entry): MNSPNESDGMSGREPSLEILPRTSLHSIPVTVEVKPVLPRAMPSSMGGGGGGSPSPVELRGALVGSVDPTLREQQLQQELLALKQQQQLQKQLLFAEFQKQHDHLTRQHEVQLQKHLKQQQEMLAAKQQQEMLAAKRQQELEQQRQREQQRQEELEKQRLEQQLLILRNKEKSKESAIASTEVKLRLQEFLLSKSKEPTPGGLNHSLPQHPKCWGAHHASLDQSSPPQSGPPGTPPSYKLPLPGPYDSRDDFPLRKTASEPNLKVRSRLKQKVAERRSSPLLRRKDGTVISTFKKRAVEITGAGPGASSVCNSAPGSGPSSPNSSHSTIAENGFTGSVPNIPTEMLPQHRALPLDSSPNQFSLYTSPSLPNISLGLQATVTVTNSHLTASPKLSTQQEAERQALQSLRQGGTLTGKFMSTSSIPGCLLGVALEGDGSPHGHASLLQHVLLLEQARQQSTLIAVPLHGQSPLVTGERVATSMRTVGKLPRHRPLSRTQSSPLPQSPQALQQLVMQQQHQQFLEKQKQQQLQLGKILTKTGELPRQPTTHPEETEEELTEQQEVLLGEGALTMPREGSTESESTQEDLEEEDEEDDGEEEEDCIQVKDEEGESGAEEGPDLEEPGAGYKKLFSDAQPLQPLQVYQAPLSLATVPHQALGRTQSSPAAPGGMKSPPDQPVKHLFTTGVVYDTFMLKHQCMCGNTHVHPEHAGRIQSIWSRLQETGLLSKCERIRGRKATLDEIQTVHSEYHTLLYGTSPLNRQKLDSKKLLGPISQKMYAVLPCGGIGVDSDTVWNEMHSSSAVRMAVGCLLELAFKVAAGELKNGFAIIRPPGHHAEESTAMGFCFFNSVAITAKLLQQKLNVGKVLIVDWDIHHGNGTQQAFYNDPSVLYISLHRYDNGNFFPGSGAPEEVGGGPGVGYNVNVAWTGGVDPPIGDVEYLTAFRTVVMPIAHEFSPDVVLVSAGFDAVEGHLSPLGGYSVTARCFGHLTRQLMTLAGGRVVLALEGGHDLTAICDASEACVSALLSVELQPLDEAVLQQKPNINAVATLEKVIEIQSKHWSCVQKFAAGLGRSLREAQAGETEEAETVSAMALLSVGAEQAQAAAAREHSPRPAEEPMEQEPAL
Chain of Histone deacetylase 4 (P56524 whole entry): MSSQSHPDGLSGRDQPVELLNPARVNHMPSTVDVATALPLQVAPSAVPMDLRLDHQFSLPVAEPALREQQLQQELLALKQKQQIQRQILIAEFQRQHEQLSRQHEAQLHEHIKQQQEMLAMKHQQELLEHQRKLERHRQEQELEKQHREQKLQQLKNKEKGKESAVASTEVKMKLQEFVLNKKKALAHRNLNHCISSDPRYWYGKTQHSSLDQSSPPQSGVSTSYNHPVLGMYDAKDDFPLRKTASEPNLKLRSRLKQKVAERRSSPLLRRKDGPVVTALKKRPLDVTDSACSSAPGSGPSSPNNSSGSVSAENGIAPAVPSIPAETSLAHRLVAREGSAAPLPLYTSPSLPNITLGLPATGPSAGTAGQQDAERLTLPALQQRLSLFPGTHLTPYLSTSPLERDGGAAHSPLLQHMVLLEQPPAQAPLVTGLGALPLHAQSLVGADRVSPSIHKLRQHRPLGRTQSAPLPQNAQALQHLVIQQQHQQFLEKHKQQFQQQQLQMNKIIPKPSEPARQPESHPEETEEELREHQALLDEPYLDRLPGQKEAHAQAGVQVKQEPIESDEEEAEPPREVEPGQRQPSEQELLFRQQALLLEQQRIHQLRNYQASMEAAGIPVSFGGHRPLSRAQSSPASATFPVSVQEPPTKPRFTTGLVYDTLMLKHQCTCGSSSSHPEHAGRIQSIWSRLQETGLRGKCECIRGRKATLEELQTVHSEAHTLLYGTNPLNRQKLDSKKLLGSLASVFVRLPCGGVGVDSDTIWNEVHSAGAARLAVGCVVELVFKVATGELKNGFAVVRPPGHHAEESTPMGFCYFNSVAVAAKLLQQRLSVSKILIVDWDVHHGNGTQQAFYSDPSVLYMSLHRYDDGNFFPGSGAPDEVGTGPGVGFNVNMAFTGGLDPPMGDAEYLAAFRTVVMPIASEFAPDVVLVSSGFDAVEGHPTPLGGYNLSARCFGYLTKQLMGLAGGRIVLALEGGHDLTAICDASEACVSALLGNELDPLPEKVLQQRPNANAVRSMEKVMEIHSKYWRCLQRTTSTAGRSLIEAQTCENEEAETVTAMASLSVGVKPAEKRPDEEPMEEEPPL
Chain of Histone deacetylase 2 (Q92769 whole entry): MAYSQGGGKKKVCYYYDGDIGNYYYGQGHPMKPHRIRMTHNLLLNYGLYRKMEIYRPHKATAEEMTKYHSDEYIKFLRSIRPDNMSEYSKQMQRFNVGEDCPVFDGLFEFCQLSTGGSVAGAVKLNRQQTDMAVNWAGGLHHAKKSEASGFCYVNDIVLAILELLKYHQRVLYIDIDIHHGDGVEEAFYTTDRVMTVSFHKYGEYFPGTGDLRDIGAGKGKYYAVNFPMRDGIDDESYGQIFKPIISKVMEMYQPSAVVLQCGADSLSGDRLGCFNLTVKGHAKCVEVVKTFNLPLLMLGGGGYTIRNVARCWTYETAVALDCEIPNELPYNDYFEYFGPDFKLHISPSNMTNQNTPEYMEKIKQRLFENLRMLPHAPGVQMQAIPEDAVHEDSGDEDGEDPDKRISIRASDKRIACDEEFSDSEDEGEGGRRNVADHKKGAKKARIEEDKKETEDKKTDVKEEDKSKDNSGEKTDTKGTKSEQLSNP

What is called IC50 is the concentration that inhibits the measured activity by half. A word on the EC50: it is the concentration at which the effect is half-maximal. The solubility is the dissolved amount per volume that the medium holds. The low end stands for a poorly soluble substance, the high end for a readily soluble substance. Consider `CS(=O)(=O)NCC(Nc1ncc(-c2nnc(C(F)F)o2)cn1)c1ccc(OC(F)(F)F)cc1` (centres undefined), for which the IC50 in data set [1] was greater than 100 µM; in data set [2], 30 µM; in data set [3], greater than 100 µM; in [4], 14 µM; in [5], greater than 100 µM; in [6] it was 0.58 µM. In addition, the figures for the IC50 in [7], in data set [8] and in data set [9] were greater than 100 µM, 0.00158 µM and greater than 10 µM, respectively. Besides, the EC50 in data set [10] was 0.0631 µM. In data set [11], the solubility is 110 µM (≈ 54.4 µg/mL).
Consider `COc1ccccc1-c1nnn(Cc2ccc(-c3nnc(C(F)F)o3)cn2)n1`, for which the IC50 in data set [1] is greater than 100 µM; in [2], greater than 100 µM; in data set [3], greater than 100 µM; in [4] it was greater than 100 µM; in data set [5], greater than 100 µM; in data set [6], 0.17 µM. The results for the IC50 in [7], in [8] and in [9] were greater than 100 µM, 0.00158 µM and greater than 10 µM, respectively. Also, the EC50 in data set [10] is 0.316 µM. This compound also registered a solubility in data set [11] of 60 µM (≈ 23.1 µg/mL).
Turning to `O=C(NO)c1cnc(NC2(c3ccccc3)CCC(F)(F)CC2)nc1`, the IC50 in data set [1] was 3.7 µM; in data set [2], 6.5 µM; in [3] it was 13 µM; in data set [4], 12 µM; in [5] it was 71 µM; in data set [6], less than 0.01 µM. Further, the IC50 in [7] is 17 µM; in data set [8], 0.00398 µM; in data set [9], greater than 10 µM. Moreover, the EC50 in data set [10] is 0.0794 µM. In data set [11], the solubility was 810 µM (≈ 282 µg/mL).
For the compound `FC(F)c1nnc(-c2ccc(Cn3nnc(-c4ccccn4)n3)nc2)o1`, the IC50 in [1] was greater than 100 µM; in [2], greater than 100 µM; in data set [3] it was greater than 100 µM; in data set [4] it was greater than 100 µM; in data set [5], greater than 100 µM; in data set [6] it was 0.19 µM. The IC50 in data set [7] is greater than 100 µM; in [8], 0.001 µM; in data set [9], greater than 10 µM. Moreover, the EC50 in data set [10] was 0.251 µM. Further, the concentration in solution in data set [11] (solubility) was 410 µM (≈ 146 µg/mL).
